Laboratory results as given in BindingDB's records for PubMed 1828505 (University of Pennsylvania, 1991).
Several values for one entry are separate records, joined by “and”; a condition that tells them apart may be missing. Identical values can stand only once.

Biological target: D(2) dopamine receptor (Homo sapiens, UniProt P14416)
Sequence (P14416 whole entry): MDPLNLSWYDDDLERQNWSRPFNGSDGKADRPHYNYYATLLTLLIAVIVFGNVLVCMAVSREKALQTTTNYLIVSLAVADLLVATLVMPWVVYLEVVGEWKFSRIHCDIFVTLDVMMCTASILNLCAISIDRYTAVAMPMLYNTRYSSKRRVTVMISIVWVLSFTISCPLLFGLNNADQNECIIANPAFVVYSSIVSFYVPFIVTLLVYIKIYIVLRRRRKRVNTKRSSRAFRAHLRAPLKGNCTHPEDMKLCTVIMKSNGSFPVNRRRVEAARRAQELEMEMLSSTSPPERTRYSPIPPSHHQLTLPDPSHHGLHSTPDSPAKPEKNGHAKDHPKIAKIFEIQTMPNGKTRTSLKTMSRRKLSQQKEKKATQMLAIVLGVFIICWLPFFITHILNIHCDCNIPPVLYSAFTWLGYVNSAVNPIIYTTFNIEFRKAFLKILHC

OCCN1CCN(CC/C=C2/c3ccccc3Sc3ccc(C(F)(F)F)cc32)CC1 [(cis) 2-{4-[3-(2-Trifluoromethyl-thioxanthen-9-ylidene)-propyl]-piperazin-1-yl}-ethanol(Flupentixol)]
Ki: 0.6 nM and 2.3 nM and 0.66 nM and 0.73 nM and 2.5 nM
